Experimental data published in US9932340B2, “Substituted indoles” (AbbVie Inc., priority 2014, dated 2018).

The compounds below were run against SUV420H1 enzyme (Homo sapiens, UniProt Q4FZB7) (assay: TR-FRET SAH SUV420H1 enzyme inhibition assay). Conditions: Histone Peptide H4(8-30)me1 and SAM, overnight at room temp, TR-FRET detection of SAH, read-out: TR-FRET SAH_SUV420H1 IC50.
Format: biochemical
Experimental: Test compounds were dispensed by a Labcyte Echo in 384-well low volume assay plates with 3-fold serial dilutions from 50 μM to 0.00075 μM. 5 μL of SUV420H1 enzyme (Abbvie) at 90 nM was added to all wells except the no enzyme control wells, and incubated for 30 minutes at room temp before 5 μL of Histone Peptide H4(8-30)me1 (Anaspec) at 5 nM and SAM at 4 nM was added to all wells. The plates were incubated in a humidified chamber overnight at room temp and then 10 μL of the detection reagent that contained RIPA buffer (50 mM Tris-HCl, pH 8.0, 150 mM sodium chloride, 1.0% Igepal CA-630 (NP-40), 0.5% sodium deoxycholate and 0.1% sodium dodecyl sulfate) (Sigma) with 2 nM of Terbium chelate anti S-adenosyl-L-homocysteine (SAH) (Abbvie) antibody and Oregon Green labeled SAH at 4 nM was added. The plates were further incubated for 4 hours at room temperature. The plates were read in a Perkin Elmer Envision using a TR-FRET protocol with Excitation set at 335 nm and Emission at 520 and 495 nm. To generate dose response curves the data is normalized to percent inhibition by setting the average of the plus and minus enzyme control wells to 0% and 100% inhibition respectively. The IC50 values for the compounds are generated by fitting the normalized data with Accelrys Assay Explorer 3.3 to a sigmoidal curve model using […] regression, Y=(100*x^n)/(K^n+x^n), where Y is the measured response, x is the compound concentration, n is the Hill Slope and K is the IC50 and the lower and higher asymptotes are constrained to 0 and 100 respectively.

Chain of SUV420H1 enzyme (Q4FZB7 whole entry): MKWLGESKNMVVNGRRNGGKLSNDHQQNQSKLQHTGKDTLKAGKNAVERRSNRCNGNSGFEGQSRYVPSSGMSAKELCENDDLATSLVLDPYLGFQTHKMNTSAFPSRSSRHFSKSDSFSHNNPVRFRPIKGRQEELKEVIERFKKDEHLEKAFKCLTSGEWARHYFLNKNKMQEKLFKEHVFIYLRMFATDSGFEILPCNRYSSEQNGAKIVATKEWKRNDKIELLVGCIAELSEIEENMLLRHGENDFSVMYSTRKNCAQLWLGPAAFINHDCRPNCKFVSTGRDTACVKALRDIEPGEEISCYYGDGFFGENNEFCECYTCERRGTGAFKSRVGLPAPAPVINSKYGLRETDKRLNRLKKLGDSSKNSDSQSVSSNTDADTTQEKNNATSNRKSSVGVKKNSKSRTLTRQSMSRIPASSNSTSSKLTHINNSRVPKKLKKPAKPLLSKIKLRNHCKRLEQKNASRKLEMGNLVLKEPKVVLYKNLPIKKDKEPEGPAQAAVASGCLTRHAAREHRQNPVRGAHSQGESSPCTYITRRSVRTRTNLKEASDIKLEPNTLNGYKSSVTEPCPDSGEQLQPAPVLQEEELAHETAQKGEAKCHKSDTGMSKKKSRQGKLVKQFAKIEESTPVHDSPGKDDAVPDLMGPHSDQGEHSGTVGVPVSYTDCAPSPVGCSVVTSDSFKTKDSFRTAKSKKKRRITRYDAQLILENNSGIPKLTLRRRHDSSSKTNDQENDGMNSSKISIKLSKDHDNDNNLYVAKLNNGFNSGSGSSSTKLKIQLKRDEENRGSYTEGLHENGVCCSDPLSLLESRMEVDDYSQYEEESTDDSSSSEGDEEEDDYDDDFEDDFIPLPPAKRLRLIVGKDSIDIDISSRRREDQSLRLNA

Compound	IC50
4-(aminomethyl)-N-({7-[(6-amino-9H-purin-9-yl)methyl]-5-(4,4-difluorocyclohexyl)-1H-indol-2-yl}methyl)-2-methylbenzamide [Example 301]	750 nM
4-{[({7-[(6-amino-9H-purin-9-yl)methyl]-5-chloro-1H-indol-2-yl}methyl)amino]methyl}-N,N-dimethylbenzamide [Example 318]	3490 nM
Nc1ncnc2c1ncn2Cc1cccc2c(Br)c[nH]c12 [Example 1, 9-[(3-bromo-1H-indol-7-yl)methyl]-9H-purin-6-amine]	> 50000 nM
CNC(=O)CCc1c[nH]c2c(Cn3cnc4c(N)ncnc43)cccc12 [Example 2, 3-{7-[(6-amino-9H-purin-9-yl)methyl]-1H-indol-3-yl}-N-methylpropanamide]	36900 nM
CN(C)C(=O)CCc1c[nH]c2c(Cn3cnc4c(N)ncnc43)cccc12 [Example 3, 3-{7-[(6-amino-9H-purin-9-yl)methyl]-1H-indol-3-yl}-N,N-dimethylpropanamide]	35000 nM
Cc1nc(N)c2ncn(Cc3cccc4cc[nH]c34)c2n1 [Example 4, 9-(1H-indol-7-ylmethyl)-2-methyl-9H-purin-6-amine]	14100 nM
Nc1ncnc2c1ncn2Cc1cccc2cc[nH]c12 [Example 5, 9-(1H-indol-7-ylmethyl)-9H-purin-6-amine]	13900 nM
Nc1ncnc2c1ncn2Cc1cc(Cl)cc2cc(CO)[nH]c12 [Example 7, {7-[(6-amino-9H-purin-9-yl)methyl]-5-chloro-1H-indol-2-yl}methanol]	22200 nM
NCc1cc2cccc(Cn3cnc4c(N)ncnc43)c2[nH]1 [Example 8, 9-{[2-(aminomethyl)-1H-indol-7-yl]methyl}-9H-purin-6-amine]	2820 nM
C=Cc1cc(Cn2cnc3c(N)ncnc32)c2[nH]c(CN)cc2c1 [Example 10, 9-{[2-(aminomethyl)-5-ethenyl-1H-indol-7-yl]methyl}-9H-purin-6-amine]	1870 nM
NCc1cc2cc(C3=CCOCC3)cc(Cn3cnc4c(N)ncnc43)c2[nH]1 [Example 12, 9-{[2-(aminomethyl)-5-(3,6-dihydro-2H-pyran-4-yl)-1H-indol-7-yl]methyl}-9H-purin-6-amine]	334 nM
NCc1cc2cc(C3=CCC(F)(F)CC3)cc(Cn3cnc4c(N)ncnc43)c2[nH]1 [Example 14, 9-{[2-(aminomethyl)-5-(4,4-difluorocyclohex-1-en-1-yl)-1H-indol-7-yl]methyl}-9H-purin-6-amine]	186 nM
CC(=O)N1CC=C(c2cc(Cn3cnc4c(N)ncnc43)c3[nH]c(CN)cc3c2)CC1 [Example 15, 1-[4-{2-(aminomethyl)-7-[(6-amino-9H-purin-9-yl)methyl]-1H-indol-5-yl}-3,6-dihydropyridin-1(2H)-yl]ethanone]	154 nM
CC(=O)N1CCC=C(c2cc(Cn3cnc4c(N)ncnc43)c3[nH]c(CN)cc3c2)C1 [Example 16, 1-[5-{2-(aminomethyl)-7-[(6-amino-9H-purin-9-yl)methyl]-1H-indol-5-yl}-3,6-dihydropyridin-1(2H)-yl]ethanone]	440 nM
CC(=O)N1CCC(c2cc(Cn3cnc4c(N)ncnc43)c3[nH]c(CN)cc3c2)CC1 [Example 17, 1-(4-{2-(aminomethyl)-7-[(6-amino-9H-purin-9-yl)methyl]-1H-indol-5-yl}piperidin-1-yl)ethanone]	635 nM
Cn1cc(-c2cc(Cn3cnc4c(N)ncnc43)c3[nH]c(CN)cc3c2)cn1 [Example 18, 9-{[2-(aminomethyl)-5-(1-methyl-1H-pyrazol-4-yl)-1H-indol-7-yl]methyl}-9H-purin-6-amine]	561 nM
NCc1cc2cc(-c3cccnc3)cc(Cn3cnc4c(N)ncnc43)c2[nH]1 [Example 20, 9-{[2-(aminomethyl)-5-(pyridin-3-yl)-1H-indol-7-yl]methyl}-9H-purin-6-amine]	866 nM
NCc1cc2cc(-c3ccccc3)cc(Cn3cnc4c(N)ncnc43)c2[nH]1 [Example 22, 9-{[2-(aminomethyl)-5-phenyl-1H-indol-7-yl]methyl}-9H-purin-6-amine]	458 nM
NCc1cc2cc(-c3ccc(F)cc3)cc(Cn3cnc4c(N)ncnc43)c2[nH]1 [Example 26, 9-{[2-(aminomethyl)-5-(4-fluorophenyl)-1H-indol-7-yl]methyl}-9H-purin-6-amine]	474 nM
NCc1cc2cc(-c3ccccc3F)cc(Cn3cnc4c(N)ncnc43)c2[nH]1 [Example 27, 9-{[2-(aminomethyl)-5-(2-fluorophenyl)-1H-indol-7-yl]methyl}-9H-purin-6-amine]	1210 nM
NCc1cc2cc(-c3ccc(CO)cc3)cc(Cn3cnc4c(N)ncnc43)c2[nH]1 [Example 33, (4-{2-(aminomethyl)-7-[(6-amino-9H-purin-9-yl)methyl]-1H-indol-5-yl}phenyl)methanol]	528 nM
COc1ccc(-c2cc(Cn3cnc4c(N)ncnc43)c3[nH]c(CN)cc3c2)cc1 [Example 34, 9-{[2-(aminomethyl)-5-(4-methoxyphenyl)-1H-indol-7-yl]methyl}-9H-purin-6-amine]	723 nM
COc1cccc(-c2cc(Cn3cnc4c(N)ncnc43)c3[nH]c(CN)cc3c2)c1 [Example 35, 9-{[2-(aminomethyl)-5-(3-methoxyphenyl)-1H-indol-7-yl]methyl}-9H-purin-6-amine]	1090 nM
CS(=O)(=O)c1ccc(-c2cc(Cn3cnc4c(N)ncnc43)c3[nH]c(CN)cc3c2)cc1 [Example 37, 9-({2-(aminomethyl)-5-[4-(methylsulfonyl)phenyl]-1H-indol-7-yl}methyl)-9H-purin-6-amine]	321 nM
N#Cc1cccc(-c2cc(Cn3cnc4c(N)ncnc43)c3[nH]c(CN)cc3c2)c1 [Example 39, 3-{2-(aminomethyl)-7-[(6-amino-9H-purin-9-yl)methyl]-1H-indol-5-yl}benzonitrile]	345 nM
NCc1cc2cc(-c3cccc(C(N)=O)c3)cc(Cn3cnc4c(N)ncnc43)c2[nH]1 [Example 40, 3-{2-(aminomethyl)-7-[(6-amino-9H-purin-9-yl)methyl]-1H-indol-5-yl}benzamide]	425 nM

The remaining compounds from weak to strong by IC50, led by results:

IC50	Compound
3330 nM	Cc1ccccc1-c1cc(Cn2cnc3c(N)ncnc32)c2[nH]c(CN)cc2c1 [Example 32, 9-{[2-(aminomethyl)-5-(2-methylphenyl)-1H-indol-7-yl]methyl}-9H-purin-6-amine]
2410 nM	COc1ccccc1-c1cc(Cn2cnc3c(N)ncnc32)c2[nH]c(CN)cc2c1 [Example 36, 9-{[2-(aminomethyl)-5-(2-methoxyphenyl)-1H-indol-7-yl]methyl}-9H-purin-6-amine]
1460 nM	Nc1nc(C2CC2)nc2c1ncn2Cc1cccc2cc[nH]c12 [Example 6, 2-cyclopropyl-9-(1H-indol-7-ylmethyl)-9H-purin-6-amine]
1170 nM	NCc1cc2cc(Cl)cc(Cn3cnc4c(N)ncnc43)c2[nH]1 [Example 9, 9-{[2-(aminomethyl)-5-chloro-1H-indol-7-yl]methyl}-9H-purin-6-amine]
1170 nM	Cc1ccc(-c2cc(Cn3cnc4c(N)ncnc43)c3[nH]c(CN)cc3c2)cc1 [Example 30, 9-{[2-(aminomethyl)-5-(4-methylphenyl)-1H-indol-7-yl]methyl}-9H-purin-6-amine]
901 nM	Cc1cccc(-c2cc(Cn3cnc4c(N)ncnc43)c3[nH]c(CN)cc3c2)c1 [Example 31, 9-{[2-(aminomethyl)-5-(3-methylphenyl)-1H-indol-7-yl]methyl}-9H-purin-6-amine]
810 nM	N#Cc1ccc(-c2cc(Cn3cnc4c(N)ncnc43)c3[nH]c(CN)cc3c2)cc1 [Example 38, 4-{2-(aminomethyl)-7-[(6-amino-9H-purin-9-yl)methyl]-1H-indol-5-yl}benzonitrile]
780 nM	NCc1cc2cc(-c3ccncc3)cc(Cn3cnc4c(N)ncnc43)c2[nH]1 [Example 21, 9-{[2-(aminomethyl)-5-(pyridin-4-yl)-1H-indol-7-yl]methyl}-9H-purin-6-amine]
426 nM	COc1ccc(-c2cc(Cn3cnc4c(N)ncnc43)c3[nH]c(CN)cc3c2)cn1 [Example 28, 9-{[2-(aminomethyl)-5-(6-methoxypyridin-3-yl)-1H-indol-7-yl]methyl}-9H-purin-6-amine]
252 nM	NCc1cc2cc(-c3ccc(S(N)(=O)=O)cc3)cc(Cn3cnc4c(N)ncnc43)c2[nH]1 [Example 29, 4-{2-(aminomethyl)-7-[(6-amino-9H-purin-9-yl)methyl]-1H-indol-5-yl}benzenesulfonamide]
178 nM	NCc1cc2cc(C3=CCCC3)cc(Cn3cnc4c(N)ncnc43)c2[nH]1 [Example 11, 9-{[2-(aminomethyl)-5-(cyclopent-1-en-1-yl)-1H-indol-7-yl]methyl}-9H-purin-6-amine]
135 nM	NCc1cc2cc(C3=CCNCC3)cc(Cn3cnc4c(N)ncnc43)c2[nH]1 [Example 13, 9-{[2-(aminomethyl)-5-(1,2,3,6-tetrahydropyridin-4-yl)-1H-indol-7-yl]methyl}-9H-purin-6-amine]
